Data: ChEMBL document CHEMBL1138894, “Synthesis and biological investigation of S-aryl-S-DABO derivatives as HIV-1 inhibitors” (Bioorg Med Chem Lett, 2006)
The source made the active and inactive calls. The calls are words filed in the database; no cut-off is given here.

Tests used:
[1] = test system: Human immunodeficiency virus type 1 reverse transcriptase (Human immunodeficiency virus 1), Q72547 [K103N]; assay: Inhibition of HIV1 reverse transcriptase K103N mutant at 400uM
[2] = biological target: Human immunodeficiency virus type 1 reverse transcriptase (Human immunodeficiency virus 1) (UniProt Q72547); assay: Inhibition of wild type HIV1 reverse transcriptase at 400uM
[3] = test system: Human immunodeficiency virus type 1 reverse transcriptase (Human immunodeficiency virus 1), Q72547 [Y181I]; assay: Inhibition of HIV1 reverse transcriptase Y181I mutant at 400uM
MT4 = assay: Cytotoxicity against MT4 cells by MTT assay; format: functional; conditions: Homo sapiens
[4] = biological target: Human immunodeficiency virus type 1 reverse transcriptase (Human immunodeficiency virus 1) (UniProt Q72547)
[5] = biological target: Human immunodeficiency virus type 1 reverse transcriptase (Human immunodeficiency virus 1) (UniProt Q72547); assay: Selectivity index (CC50/EC50); format: functional

COc1ccc(Sc2nc(O)c(C)c(Cc3c(F)cccc3F)n2)cc1 was tested, and the Activity [1] was “inactive”, the Activity [2] was “inactive” and the Activity [3] was “inactive”. The CC50 (MT4) was 57.5 µM.
Cc1c(O)nc(Sc2ccccc2)nc1Cc1c(Cl)cccc1Cl was tested, and the ID50 [4] was 36 µM, the Activity [1] was “inactive” and the Activity [3] was “inactive”. It also gave a CC50 (MT4) of over 66.3 µM.
For Cc1c(O)nc(Sc2ccc(F)cc2F)nc1Cc1c(F)cccc1F, the ID50 [4] was 30 µM, the Activity [1] was “inactive” and the Activity [3] was “inactive”. The CC50 (MT4) was over 65.8 µM.
For Cc1c(O)nc(Sc2ccc(C#N)cc2)nc1Cc1c(Cl)cccc1Cl, the ID50 [4] was 23 µM, the Activity [1] was “inactive” and the Activity [3] was “inactive”. For the same molecule, the CC50 (MT4) was 27.6 µM.
Work on Cc1ccnc2c1NC(=O)c1cccnc1N2C1CC1 [NEVIRAPINE] yielded a CC50 (MT4) of over 7.5 µM.
COc1ccc(Sc2nc(O)c(C)c(Cc3c(Cl)cccc3Cl)n2)cc1 was tested, and the Activity [1] was “inactive”, the Activity [2] was “inactive” and the Activity [3] was “inactive”. The CC50 (MT4) was over 61.4 µM.
In the case of Cc1c(O)nc(Sc2ccc(F)cc2F)nc1Cc1c(Cl)cccc1Cl, the ID50 [4] is reported as 10 µM, the Activity [1] is reported as “inactive” and the Activity [3] is reported as “inactive”. For the same molecule, the CC50 (MT4) was over 60.5 µM.
With Cc1c(O)nc(Sc2ccc(Cl)cc2)nc1Cc1c(F)cccc1F the ID50 [4] was 22 µM, the Activity [1] was “inactive” and the Activity [3] was “inactive”. It also gave a CC50 (MT4) of over 66.1 µM.
With Cc1cn([C@H]2C[C@H](N=[N+]=[N-])[C@@H](CO)O2)c(=O)[nH]c1=O [ZIDOVUDINE] the CC50 (MT4) was 3.7 µM.
O=C1Nc2ccc(Cl)cc2C(C#CC2CC2)(C(F)(F)F)O1 (single isomer, unassigned) [EFAVIRENZ] was tested, and the CC50 (MT4) was over 0.32 µM.
Cc1c(O)nc(Sc2ccccc2)nc1Cc1c(F)cccc1F was tested, and the ID50 [4] was 32 µM, the Activity [1] was “inactive” and the Selectivity index [5] was over 835. For the same molecule, the Activity [3] was “inactive” and the CC50 (MT4) was over 72.7 µM.
COc1ccc(Sc2nc(O)c(C)c(Cc3c(Cl)cccc3Cl)n2)cn1 was tested, and the ID50 [4] was 3.5 µM, the Activity [1] was “inactive” and the Activity [3] was “inactive”. The CC50 (MT4) was over 61.3 µM.
